From US10946096B2, “Nitrobenzaldehyde proton release for manipulation of cellular acidosis” (priority 2014, dated 2021)
Several values for one entry are separate records, joined by “and”; a condition that tells them apart may be missing. Equal values may be shown once.

How the values were obtained:
MCF-7 cells [1] = assay: Cell death quantification MCF-7 (blebbing and/or Annexin V); type: cell-based, human
Experimental: Apoptosis Indicator. The apoptosis indicator Annexin V Alexa Fluor 568 was stored in a solution containing 25 mM HEPES, 140 mM NaCl, 1 mM EDTA, pH 7.4, plus 0.1% bovine serum albumin (BSA). A 10 μL of stock Annexin V Alexa Fluor 568 was diluted in 2 mL of binding buffer. The binding buffer consisted of: 10 mM HEPES, 140 mM NaCl, and 2.5 mM CaCl2, at a pH of 7.4. Cell Death Quantification MCF-7. After UV flash paradigm, the presences of blebs were observed and recordings of the pH in the intrablebular inflationary space (pHb) were acquired using the DCFDA fluorescence as they expanded. […] We quantified blebs as cellular death based on previously published findings which described blebbing as an irreversible death process (Andrade et al., Biology of the Cell, 2010, 102(1):25-35). Control Experiments. Controls in each experiment were performed by moving 10 mm or more away from the UV or 980 nm exposed region. Recordings of pHi were performed to detect if NBA or the nanoparticle affected the cell or inadvertently uncaged hydrogens in the periphery of the plate. Detection of apoptosis and/or blebs was performed using Annexin V Alexa Fluor 568 and DCFDA optical recording. Control experiments were performed in the following conditions: UV alone, time alone, and NBA alone. Each one of the control experiments was performed for a minimum of 3 hours.

MDA-MB-231 cells [2] = assay: Cell death quantification MDA-MB-231 (blebbing and/or Annexin V); type: cell-based, human; conditions: in less than three hours following NBA flash photolysis
Experimental: Cell Death Quantification MDA-MB-231. One hour after the UV flash paradigm to induce intracellular acidosis, the cells were lightly washed and the media was replaced with the phosphatidylserine indicator Annexin V Alexa Fluor 568. This solution was made using 10 μL of the stock solution and diluted in 2 ml of rat aCSF. Fifteen minutes was allowed for membrane binding, then fluorescence was monitored for the next hour or until all cells were expressing apoptosis. As with MCF-7 cells, we quantified blebs as cellular death based on previously published findings which described blebbing as an irreversible death process (Andrade et al., Biology of the Cell, 2010, 102(1):25-35).

PC12 cells [3] = assay: Cell death quantification PC12 (Annexin V Alexa Fluor 568); type: cell-based, Rat
Experimental: Apoptosis Indicator. The apoptosis indicator Annexin V Alexa Fluor 568 was stored in a solution containing 25 mM HEPES, 140 mM NaCl, 1 mM EDTA, pH 7.4, plus 0.1% bovine serum albumin (BSA). A 10 μL of stock Annexin V Alexa Fluor 568 was diluted in 2 mL of binding buffer. The binding buffer consisted of: 10 mM HEPES, 140 mM NaCl, and 2.5 mM CaCl2, at a pH of 7.4.
Cell Death Quantification PC12. One hour after the UV flash paradigm to induce intracellular acidosis, the cells were lightly washed and the media was replaced with the phosphatidylserine indicator Annexin V Alexa Fluor 568. This solution was made using 10 μL of the stock solution and diluted in 2 ml of rat aCSF. Fifteen minutes was allowed for membrane binding, then fluorescence was monitored for the next hour or until all cells were expressing apoptosis.
Control Experiments. Controls in each experiment were performed by moving 10 mm or more away from the UV or 980 nm exposed region. Recordings of pHi were performed to detect if NBA or the nanoparticle affected the cell or inadvertently uncaged hydrogens in the periphery of the plate. Detection of apoptosis and/or blebs was performed using Annexin V Alexa Fluor 568 and DCFDA optical recording. Control experiments were performed in the following conditions: UV alone, time alone, and NBA alone. Each one of the control experiments was performed for a minimum of 3 hours.

MDA-MB-231 cells [4] = assay: Optical recording of pHi (DCFDA) in MDA-MB-231 cells before/after UV flash photolysis of NBA; type: cell-based, human
Experimental: Optical Recording of pHi MDA-MB-231. DCFDA stock solution was diluted to a concentration of 10 μM in a 3 mL rat aCSF solution. MBA-MD-231 cells were flashed every 30 seconds at 495/440 nm for a duration of 900/700 ms, respectively, at 40× magnification and 2 seconds at each wavelength under the 10× magnification. […] Optical recording of pHi was monitored for a minimum of 10 minutes to represent a steady state.
NBA Load for Focal Acidification of MDA-MB231. Seventy-five μL of NBA stock solution was mixed in 3 mL of rat aCSF and bath applied to MDA-MB-231 cells for 10 minutes. After bath application, cells were washed a minimum of three times with rat aCSF. MDA-MB-231 cells were exposed to 60-30-60 UV light paradigm. After each exposure, pH was monitored for 2 minutes to quantify pH, acidification.

rat ventricular myocytes = conditions: NBA 1 mM, absence of UV exposure; cited from earlier work
MDA-MB-231 tumors [5] = assay: Tumor growth of MDA-MB-231-GFP tumors in nude mice after one-time NBA phototherapy; type: in vivo; conditions: one-time 0.1 ml 1 mM NBA into tumor + 405 nm 60-30-60 illumination, P<0.05
Experimental: We injected the aggressive triple negative breast cancer MDA-MB-231-GFP (2×10^6 cells) into the mammary fat pad of 5 week old female nude mice. Tumors appeared after approximately one week following injection. Treatment was initiated once the tumors reached and maintained a length of 5 mm for two consecutive days. The mice received a one-time treatment of either a control injection if 0.1 ml of aCSF to the tumor or 0.1 ml of NBA (1 mM) followed by photoactivation. The NBA/photoactivation treatment was conducted as follows: one hour after NBA injection, the animal was anesthetized (1.5-4% isoflurane) prior to the insertion of a 200 μm fiber optic cannula into the tumor mass. The interior of the tumor was illuminated with 405 nm light (80-85 mW) via a ceramic cannula using the same illumination paradigm which was effective in vitro, specifically 60 seconds of illumination, 60 seconds of no illumination, 30 seconds of illumination, 60 seconds of no illumination, and 60 seconds of illumination. This paradigm is referred to as a “60-30-60” illumination paradigm.
Tumors were measured daily in order to calculate changes in tumor volume using the formula: Tumor Volume(TV)=[…]
The percent change in tumor volume was calculated by normalizing the percent change to the tumor volume recorded on the day of treatment. […]

MCF-7 cells [6] = assay: Optical recording of pHi (DCFDA) in MCF-7 cells before/after UV flash photolysis of NBA; type: cell-based, human
Experimental: Optical Recording of pH, MCF-7. DCFDA stock solution was diluted to a concentration of 10 μM in a 3 mL rat aCSF solution. MCF-7 cells were flashed every 30 seconds at 495/440 nm for a duration of 900/700 ms, respectively, at 40× magnification and 2 seconds at each wavelength under the 10× magnification. […] Optical recording of pHi was monitored for a minimum of 10 minutes to represent a steady state.
NBA Load for Focal Acidification of MCF-7. Seventy-five μL of NBA stock solution was mixed in 3 mL of rat aCSF and bath applied to MCF-7 cells for 10 minutes. After bath application, cells were washed a minimum of three times with rat aCSF. MCF-7 cells were exposed to 60-30-60 UV light paradigm. After each exposure, pH was monitored for 2 minutes to quantify pHi acidification.

MDA-MB-231 tumors [7] = assay: Survival of nude mice with MDA-MB-231 tumors after one-time NBA phototherapy; type: in vivo
Experimental: The described inventive technique is effective in increasing the duration of survival in animals with cancer in vivo. […] NBA was injected into the established triple negative breast cancer MDA-MB-231 tumors of 6 week old nude mice. One hour was permitted to allow adequate diffusion of the NBA into the intracellular space of the cancer cells. Following this one-hour diffusion period, the tumors were exposed to 405 nm photo-activating light (85 mW) for a 60-30-60 excitation paradigm (described previously).
Following their one-time treatment of either NBA with photo-activation or control aCSF, mice were monitored and euthanized in accordance with the Humane Endpoints approved by the University of Texas at San Antonio Institutional Animal Care and Use Committee (IACUC). The control aCSF treated mice (n=4) survived for an average of 16.5±1.66 days from the day of treatment, with survival days from treatment ranging from 14 to 19 days. In contrast, the one-time NBA treated mice survived for 35.2±5.70 days from the day of treatment (FIG. 22). The NBA treated mice survival ranged from 18 to 50 days from treatment.

[8] = tested on: in vitro tadpole brainstem; conditions: 10 μM NBA, entire in vitro tadpole brainstem; cited from earlier work
PC12 cells [9] = assay: Optical recording of pHi (DCFDA) in PC12 cells before/after UV flash photolysis of NBA; type: cell-based, Rat
Experimental: Calibrating and Measuring pH with DCFDA. For ratiometric pH, measurements, PC12 cells were loaded with the pH-sensitive dye Carboxy-DCFDA (10 μM in rat aCSF). Nigericin was titrated to a pH of 2.0, 4.0, 5.0, 6.0, 7.0 or 8.0. The emitted fluorescence of DCFDA was recorded from cells at each of the titrated pH solutions. […] Each ratio from individual cells (n=421) was recorded for each pH. A curve of best fit was created (R^2=93.02) and used for the conversion of fluorescence to pHi.
Optic Recording of pHi PC12. DCFDA stock solution was diluted to a concentration of 10 μM in a 3 mL rat aCSF solution. PC12 cells were flashed every 30 second at 495/440 nm for a duration of 900/700 ms, respectively, at 40× magnification and 2 seconds at each wavelength under the 10× magnification. Cells were washed three times with rat aCSF after 10 minutes and prior to recording fluorescence to monitor steady state.
NBA Loading for Focal Acidification of PC12. Seventy-five μL of NBA stock solution was mixed in 3 mL of rat aCSF and bath applied to PC12 cells for 10 minutes. After bath application, cells were washed a minimum of three times with rat aCSF. PC12 cells were exposed to UV light using various flash paradigms. After each exposure, pH was monitored for 2 minutes to quantify pH, acidification.
In our experiments PC12 cells were loaded with the ratiometric fluorescent dye DCFDA. DCFDA was utilized for measuring changes in the intracellular pH (pHi) of a cell over a broad pH range from 2.0 to 7.0 (FIG. 3A, 3B). In this embodiment of the invention, NBA (1 mM) was bath applied at room temperature to PC12 cells and allowed to passively diffuse across the cell membrane. Emitted fluorescence ratios were taken prior to photoactivation of NBA with a flash photolysis paradigm (FIG. 15). Emitted fluorescence ratios were also recorded after NBA was exposed to a wavelength of 350 nm UV light. Using fluorescence microscopy, we can optically record and quantify changes in pHi.

Q: What does the source list for `O=Cc1ccccc1[N+](=O)[O-]` [NBA, 2-nitrobenzaldehyde]?
A: Percentage of apoptosis, NBA only (MCF-7 cells [1]; MCF-7 cells exposed only to NBA, no UV): 2.3%; Percentage of death within 2 hours (MCF-7 cells [1]; MCF-7 cells incubated in NBA and exposed to UV, within 2 hours): above 90%; Average apoptosis over time (MCF-7 cells [1]; MCF-7 cells, 1 mM NBA + 60-30-60 UV flash): 98.3±0.3%; Cell death (MDA-MB-231 cells [2]): 55.3%; Average apoptosis (PC12 cells [3]; NBA + UV flash photolysis): 84.0±1.33%; Percentage of cells exhibiting apoptosis, NBA alone (PC12 cells [3]; NBA alone, no UV (n=47)): 2.1%; Mean pHi before flash paradigm (MDA-MB-231 cells [4]; MDA-MB-231 cells (n=38), loaded with NBA, before 60-30-60 UV flash): 6.47±0.06; Mean Δ pHi (MDA-MB-231 cells [4]; MDA-MB-231 cells, NBA, 60-30-60 UV flash): 3.68±0.18 pH units; Mean pHi after flash paradigm (MDA-MB-231 cells [4]; MDA-MB-231 cells, NBA, after 60-30-60 UV flash): 2.78±0.23; Effect on diastolic Ca2+, cellular contraction, spatial pHi regulation (rat ventricular myocytes): did not alter; Duration of significant reduction in tumor volume vs aCSF control (MDA-MB-231 tumors [5]): up to 13 days; Average pHi drop, first flash (MCF-7 cells [6]; MCF-7 cells (n=13), 60-30-60 UV flash paradigm, flash 1): 0.68; Average pHi drop, second flash (MCF-7 cells [6]; MCF-7 cells (n=13), 60-30-60 UV flash paradigm, flash 2): 0.35; Average pHi drop, third flash (MCF-7 cells [6]; MCF-7 cells (n=13), 60-30-60 UV flash paradigm, flash 3): 0.59; Mean pHi before flash photolysis (MCF-7 cells [6]; MCF-7 cells, 1 mM NBA, 10 μM DCFDA, before 60-30-60 UV flash paradigm): 7.38±0.13 and 7.38; Mean pHi after flash photolysis (MCF-7 cells [6]; MCF-7 cells, 1 mM NBA, after 60-30-60 UV flash paradigm): 6.22±0.15 and 6.22; Mean survival from the day of treatment (MDA-MB-231 tumors [7]; one-time NBA + 405 nm (85 mW) 60-30-60 photo-activation, nude mice): 35.2 ± 5.70 days; Increase in survivability vs control aCSF (MDA-MB-231 tumors [7]; one-time NBA photo-activation vs aCSF control, P=0.012): 113.3%; Effect on spontaneous fictive respiratory motor output and central respiratory chemoreceptor responses [8]: no disruption; Average pHi drop, first flash (PC12 cells [9]; PC12 cells (n=22), 60-30-60 UV flash paradigm, flash 1): 0.72; Average pHi drop, second flash (PC12 cells [9]; PC12 cells (n=22), 60-30-60 UV flash paradigm, flash 2): 0.36; Average pHi drop, third flash (PC12 cells [9]; PC12 cells (n=22), 60-30-60 UV flash paradigm, flash 3): 0.36; Mean pHi before flash photolysis (PC12 cells [9]; PC12 cells, 1 mM NBA, 10 μM DCFDA, after NBA application and prior to photolysis): 7.55±0.025 and 7.55; Mean pHi after flash photolysis (PC12 cells [9]; PC12 cells, 1 mM NBA, after 350 nm UV exposure): 6.37±0.03 and 6.37; Mean change in pHi (Δ pHi) (PC12 cells [9]; PC12 cells, 1 mM NBA, flash photolysis): 1.18 pH units
